Assay results from patent US5198552A, “Indole derivative having antiviral, interferon-inducing and immunomodulatory effects” (priority 1991, dated 1993).
Entries after “also recorded” stand apart in the source; their conditions may differ.

Key:
[1] = test system: antibody-producing cells; test: Antibody-producing cells in the spleen of mice immunized with sheep erythrocytes; assay type: in vivo; design: immune response against the control: concentration or dose not given beside the values
[2] = test system: stem cells; test: Inactivation of stem cells with allogenic lymphocytes (graft versus host, spleen endocolonies); assay type: in vivo, mice
[3] = test system: lymphocytes; assay type: in vivo, human
[4] = Allergizing effect, rabbits; assay type: in vivo; conditions: subcutaneous injections and repeated skin applications
[5] = single 100 mg and 300 mg daily per os

For `CCOC(=O)c1c(CSc2ccccc2)n(C)c2cc(Br)c(O)c(CN(C)C)c12.Cl.O` [preparation of the invention, ethyl 6-bromo-5-hydroxy-4-dimethylaminomethyl-1-methyl-2-phenylthiomethylindole-3-carboxylate hydrochloride monohydrate], the “immunopotentiating effect on tumor-carrier animals” value ([1]; 7-17 day of tumor development, single (3 days prior to immunization) or 5-times daily) was “immunopotentiating effect on tumor-carrier animals”, the “Antibody-producing cells in spleen (% of control)” value ([1]; intact mice, a single use) was 246 ± 6.0% and the “Antibody-producing cells in spleen (% of control)” value ([1]; intact mice, during 3 days, daily) was 141 ± 13%. The “Antibody-producing cells in spleen (% of control)” value ([1]; intact mice, during 5 days, daily) was 192 ± 14.0%, the “immunostimulating effect on irradiated animals” value ([1]; irradiated animals) was “pronounced immunostimulating effect” and the “immune response against the control” value ([1]; irradiated animals, administered 3 days prior to irradiation) was 230%. The “stimulation of antibody genesis, compared with reference standards” value ([1]; mice, intact and irradiated) was “superior over reference standards--levamisole and a double-stranded RF2 phage RNA”, the “Antibody-producing cells in spleen (% of control)” value ([1]; totally irradiated (2 Gr.), 5 times in 3 days) was 96 ± 20.0% and the “Antibody-producing cells in spleen (% of control)” value ([1]; totally irradiated (2 Gr.), a single use) was 230 ± 12.0%. For the same compound, the “Antibody-producing cells in spleen (% of control)” value ([1]; totally irradiated (2 Gr.), during 3 days, daily) was 129 ± 19%, the “Antibody-producing cells in spleen (% of control)” value ([1]; totally irradiated (2 Gr.), during 5 days, daily) was 181 ± 11.3% and the “immunopotentiating effect on totally irradiated tumor-carrier animals” value ([1]; totally irradiated tumor-carriers) was “pronounced immunopotentiating effect”. The “Antibody-producing cells in spleen (% of control)” value ([1]; totally irradiated tumor-carriers (2 Gr.), 5 times in 3 days) was 250 ± 21.5%, the “Antibody-producing cells in spleen (% of control)” value ([1]; totally irradiated tumor-carriers (2 Gr.), during 3 days, daily) was 121 ± 25% and the “Antibody-producing cells in spleen (% of control)” value ([1]; totally irradiated tumor-carriers (2 Gr.), during 5 days, daily) was 128 ± 28.5%. For the same compound, the “Antibody-producing cells in spleen (% of control)” value ([1]; tumor-carriers, 5 times in 3 days) was 110 ± 11.0%, the “Antibody-producing cells in spleen (% of control)” value ([1]; tumor-carriers, a single use) was 211 ± 10.0% and the “Antibody-producing cells in spleen (% of control)” value ([1]; tumor-carriers, during 3 days, daily) was 99 ± 19%. The “The counts of spleen endocolonies (M ± m)” value (“The counts” below) ([2]; 1.25 × 10^6 lymphocytes) was 2.5 ± 0.4, the “The counts” value ([2]; 2.5 × 10^6 lymphocytes) was 1.6 ± 0.2 and the “The counts” value ([2]; 5.0 × 10^6 lymphocytes) was 0.3 ± 0.1. For the same compound, the “effect on yield of spleen colonies under graft versus host conditions” value ([2]; preparation 100 mg per 1 kg orally, levamisole 5 mg per 1 kg, hydrochloride monohydrate) was “reduces both observed deviations as compared to control values if the concentration of introduced cells is not the highest; also recorded: normalizes the proliferative activity of target cells and their ability of producing a vital colony”, the “bonding receptors with the outer lymphocyte membrane” value [3, 5] was “leads to changes in bonding receptors with the outer lymphocyte membrane” and the “counts of T-populations” value [3, 5] was “fails to change the counts of T-populations”. The “persistence of changes in bonding receptors” value ([3]; time of observation) was 14 days, the “effect of vaccination on the nature of changes of bonding receptors” value ([3]; vaccination 24 hours after administering) was “no effect on the nature of changes of bonding receptors” and the allergizing action [4] was “did not exert an allergizing action”.
